Read-outs that look alike come from different tables or passages of the source. A value given as a limit tells only on which side of the number the result lay.

Our source for the EC50 and IC50 values is publication PMC4503722, “Novel Phenotypic Outcomes Identified for a Public Collection of Approved Drugs from a Publicly Accessible Panel of Assays” (PLoS ONE, 2015).

The test system of assay [1] is NCI-H716 cells. Nature of the assay: cells. The following applies: Homo sapiens. It is filed as cell-based, Human.
The target in assay [2] is T1, hp70S6K1 (RPS6KB1) (Homo sapiens, UniProt P23443).
T1 construct: purchased Cerep (LANCE kinase assay platform, contract assay)
Nature of the assay: Cerep LANCE kinase assay hp70S6K1 (S1 assay 31). It is filed as biochemical. The following applies: read-out: p70S6K1. A general note: In TR-FRET formats the signal depends on donor and acceptor labels being close together.

Assay [3] relates to SNU-C1. Briefly: cells. It is filed as cell-based. The following applies: Homo sapiens.
The target of assay [4] is T2, hGSK3b (Homo sapiens, UniProt P49841).
T2 construct: purchased Cerep (LANCE kinase assay platform, contract assay)
Briefly: Cerep LANCE kinase assay hGSK3b (S1 assay 34). The format is biochemical. The following applies: read-out: GSK3b.

Assay [5] concerns INS-1E cells. Briefly: cells. It is filed as cell-based, rat. The following applies: Rattus norvegicus, INS-1E.
Assay [6] concerns HT-29. Briefly: cells. It is filed as cell-based. The settings on record: Homo sapiens.
Assay [7] concerns endothelial tube formation in co-cultures of ECFCs and ADSCs treated with VEGF. Nature of the assay: cells. It is filed as cell-based, human. The following applies: Homo sapiens.
The test system of assay [8] is Colo320. Briefly: cells. The following applies: Homo sapiens. The format is cell-based.
Assay [9] concerns RKO. Briefly: cells. It is filed as cell-based. The following applies: Homo sapiens, RKO.
In assay [10] the target is T3, hFLT3 (Homo sapiens, UniProt P36888).
T3 construct: purchased Cerep (LANCE kinase assay platform, contract assay)
Briefly: Cerep LANCE kinase assay hFLT3 (S1 assay 35). The format is biochemical. The settings on record: read-out: FLT3.

Assay [11] concerns HCT116 cells treated with a GSK3β inhibitor. Briefly: cells. The format is cell-based. The settings on record: Homo sapiens.
Assay [12] has as its system HeLa cells. Briefly: cells. It is filed as cell-based. The settings on record: Homo sapiens, HeLa, read-out: CellCycle G2/M.
The subject of assay [13] is nuclear β-catenin in C2C12 cells. Briefly: cells. The settings on record: Mus musculus. The format is cell-based.
Assay [14] relates to SW480. Briefly: cells. It is filed as cell-based. The settings on record: Homo sapiens.
The subject of assay [15] is DLD-1. Nature of the assay: cells. The settings on record: Homo sapiens. It is filed as cell-based.
Assay [16] deals with T4, hJAK2 (Homo sapiens, UniProt O60674).
T4 construct: purchased Cerep (LANCE kinase assay platform, contract assay)
Nature of the assay: Cerep LANCE kinase assay hJAK2 (S1 assay 33). It is filed as biochemical. The following applies: read-out: JAK2.

Assay [17] has as its target T5, hKDR (Homo sapiens, UniProt P35968).
T5 construct: purchased Cerep (LANCE kinase assay platform, contract assay)
Nature of the assay: Cerep LANCE kinase assay hKDR (S1 assay 32). It is filed as biochemical. The following applies: read-out: KDR.

The subject of assay [18] is HCT116. Briefly: cells. The format is cell-based. The settings on record: Homo sapiens.
[19] abbreviates: NCI-H716, read-out: GLP 1 Secretion.
The mark [20] stands for this setting: SNU-C1, read-out: Basal_Viability ATP SNU-C1.
[21] abbreviates: HT-29, read-out: Basal_Viability ATP HT-29.
[22] abbreviates: COLO 320, read-out: Basal_Viability ATP Colo 320.
The mark [23] stands for this setting: read-out: Basal_Viability ATP RKO.
Where [24] appears, read: HCT-116, read-out: GSK3b inh pretreated_Viability ATP HCT116.
[25] abbreviates: SW480, read-out: Basal_Viability ATP SW480.
Where [26] appears, read: DLD-1, read-out: Basal_Viability ATP DLD-1.
[27] abbreviates: HCT-116, read-out: Basal_Viability ATP HCT116.

T5 sequence (P35968 20-1356): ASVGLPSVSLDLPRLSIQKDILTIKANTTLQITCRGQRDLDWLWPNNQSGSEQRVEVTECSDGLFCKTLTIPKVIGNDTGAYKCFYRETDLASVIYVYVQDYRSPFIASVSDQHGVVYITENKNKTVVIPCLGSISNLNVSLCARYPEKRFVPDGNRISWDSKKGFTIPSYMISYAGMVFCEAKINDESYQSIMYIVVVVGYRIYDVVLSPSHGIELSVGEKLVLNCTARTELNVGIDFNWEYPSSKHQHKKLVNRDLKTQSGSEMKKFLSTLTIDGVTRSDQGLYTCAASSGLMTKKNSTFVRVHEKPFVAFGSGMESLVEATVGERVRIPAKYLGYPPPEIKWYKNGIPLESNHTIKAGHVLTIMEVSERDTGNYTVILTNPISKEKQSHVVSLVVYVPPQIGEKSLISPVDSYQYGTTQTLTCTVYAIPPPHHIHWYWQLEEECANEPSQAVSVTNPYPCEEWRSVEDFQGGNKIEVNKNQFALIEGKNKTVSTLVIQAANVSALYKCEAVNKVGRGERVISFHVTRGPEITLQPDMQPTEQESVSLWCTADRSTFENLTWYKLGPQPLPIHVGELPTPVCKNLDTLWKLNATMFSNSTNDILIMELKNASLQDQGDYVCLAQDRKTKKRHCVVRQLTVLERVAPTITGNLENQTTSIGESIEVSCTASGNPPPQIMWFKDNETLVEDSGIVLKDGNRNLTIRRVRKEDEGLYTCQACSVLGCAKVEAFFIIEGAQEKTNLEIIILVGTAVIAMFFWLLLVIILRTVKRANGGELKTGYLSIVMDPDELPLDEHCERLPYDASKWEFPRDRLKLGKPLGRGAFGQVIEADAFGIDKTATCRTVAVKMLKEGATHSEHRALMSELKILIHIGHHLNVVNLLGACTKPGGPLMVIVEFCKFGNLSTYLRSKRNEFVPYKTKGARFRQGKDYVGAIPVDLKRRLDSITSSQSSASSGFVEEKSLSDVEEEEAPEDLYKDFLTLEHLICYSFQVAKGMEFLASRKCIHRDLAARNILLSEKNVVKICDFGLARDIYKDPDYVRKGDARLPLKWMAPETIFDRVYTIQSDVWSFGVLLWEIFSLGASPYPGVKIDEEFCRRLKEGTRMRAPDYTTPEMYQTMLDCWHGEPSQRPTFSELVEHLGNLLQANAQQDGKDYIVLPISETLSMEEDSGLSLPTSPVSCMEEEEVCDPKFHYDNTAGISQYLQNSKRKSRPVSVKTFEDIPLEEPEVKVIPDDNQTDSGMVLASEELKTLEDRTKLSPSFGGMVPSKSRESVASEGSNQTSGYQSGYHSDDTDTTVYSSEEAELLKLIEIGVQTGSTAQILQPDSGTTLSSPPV
T4 sequence (O60674 whole entry): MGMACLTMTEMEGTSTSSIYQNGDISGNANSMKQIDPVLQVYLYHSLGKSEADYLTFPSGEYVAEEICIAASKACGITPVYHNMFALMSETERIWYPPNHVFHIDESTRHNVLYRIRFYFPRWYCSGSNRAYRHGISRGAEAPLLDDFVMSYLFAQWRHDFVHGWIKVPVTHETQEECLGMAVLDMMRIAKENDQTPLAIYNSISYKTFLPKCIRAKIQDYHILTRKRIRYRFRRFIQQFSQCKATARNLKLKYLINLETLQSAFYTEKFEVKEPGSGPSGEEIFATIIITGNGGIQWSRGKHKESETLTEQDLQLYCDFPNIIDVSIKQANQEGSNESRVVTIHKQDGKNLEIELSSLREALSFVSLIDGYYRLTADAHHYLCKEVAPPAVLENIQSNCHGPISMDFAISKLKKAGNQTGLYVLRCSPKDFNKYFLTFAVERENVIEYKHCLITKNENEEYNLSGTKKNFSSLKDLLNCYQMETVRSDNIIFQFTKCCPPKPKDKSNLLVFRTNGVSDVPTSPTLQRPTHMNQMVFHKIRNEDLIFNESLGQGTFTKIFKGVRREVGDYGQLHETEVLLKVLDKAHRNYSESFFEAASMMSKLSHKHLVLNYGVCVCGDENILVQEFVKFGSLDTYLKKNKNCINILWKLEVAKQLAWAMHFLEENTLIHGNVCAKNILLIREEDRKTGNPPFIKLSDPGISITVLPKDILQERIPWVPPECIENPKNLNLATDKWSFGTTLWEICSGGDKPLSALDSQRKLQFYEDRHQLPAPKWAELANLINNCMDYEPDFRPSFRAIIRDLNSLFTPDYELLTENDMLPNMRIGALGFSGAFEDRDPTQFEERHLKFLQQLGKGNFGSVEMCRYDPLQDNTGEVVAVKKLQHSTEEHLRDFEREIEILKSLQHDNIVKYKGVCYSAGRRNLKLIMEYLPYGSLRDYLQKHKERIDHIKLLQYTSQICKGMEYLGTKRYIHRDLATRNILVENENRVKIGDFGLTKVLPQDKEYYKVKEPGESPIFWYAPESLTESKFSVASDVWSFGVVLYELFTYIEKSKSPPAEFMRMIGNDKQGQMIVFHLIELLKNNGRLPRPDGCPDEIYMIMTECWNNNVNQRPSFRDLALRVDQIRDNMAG
T3 sequence (P36888 27-993): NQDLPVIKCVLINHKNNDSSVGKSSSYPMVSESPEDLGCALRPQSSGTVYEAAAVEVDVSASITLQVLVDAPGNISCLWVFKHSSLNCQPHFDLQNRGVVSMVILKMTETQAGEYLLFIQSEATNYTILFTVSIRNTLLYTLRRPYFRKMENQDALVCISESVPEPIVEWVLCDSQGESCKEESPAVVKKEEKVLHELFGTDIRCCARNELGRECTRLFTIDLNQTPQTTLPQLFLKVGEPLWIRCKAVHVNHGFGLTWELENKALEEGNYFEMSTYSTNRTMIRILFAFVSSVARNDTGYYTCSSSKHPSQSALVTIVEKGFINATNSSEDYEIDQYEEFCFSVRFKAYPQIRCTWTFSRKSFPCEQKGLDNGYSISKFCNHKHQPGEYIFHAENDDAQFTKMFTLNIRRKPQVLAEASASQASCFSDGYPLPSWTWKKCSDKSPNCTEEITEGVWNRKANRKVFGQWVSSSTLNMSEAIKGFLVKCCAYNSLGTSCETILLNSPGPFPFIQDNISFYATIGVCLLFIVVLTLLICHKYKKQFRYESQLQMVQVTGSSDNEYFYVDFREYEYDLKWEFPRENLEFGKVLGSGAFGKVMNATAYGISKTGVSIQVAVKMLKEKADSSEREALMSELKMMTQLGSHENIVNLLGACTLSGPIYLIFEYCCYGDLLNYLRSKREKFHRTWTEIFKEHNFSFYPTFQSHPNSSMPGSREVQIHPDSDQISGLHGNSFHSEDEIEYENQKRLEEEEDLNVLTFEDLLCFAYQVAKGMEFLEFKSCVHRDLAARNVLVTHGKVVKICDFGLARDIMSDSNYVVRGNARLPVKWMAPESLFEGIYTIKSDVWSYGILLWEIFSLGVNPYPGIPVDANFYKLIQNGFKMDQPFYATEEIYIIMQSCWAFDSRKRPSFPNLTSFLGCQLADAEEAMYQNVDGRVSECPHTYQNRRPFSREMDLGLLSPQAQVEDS
T1 sequence (P23443 whole entry): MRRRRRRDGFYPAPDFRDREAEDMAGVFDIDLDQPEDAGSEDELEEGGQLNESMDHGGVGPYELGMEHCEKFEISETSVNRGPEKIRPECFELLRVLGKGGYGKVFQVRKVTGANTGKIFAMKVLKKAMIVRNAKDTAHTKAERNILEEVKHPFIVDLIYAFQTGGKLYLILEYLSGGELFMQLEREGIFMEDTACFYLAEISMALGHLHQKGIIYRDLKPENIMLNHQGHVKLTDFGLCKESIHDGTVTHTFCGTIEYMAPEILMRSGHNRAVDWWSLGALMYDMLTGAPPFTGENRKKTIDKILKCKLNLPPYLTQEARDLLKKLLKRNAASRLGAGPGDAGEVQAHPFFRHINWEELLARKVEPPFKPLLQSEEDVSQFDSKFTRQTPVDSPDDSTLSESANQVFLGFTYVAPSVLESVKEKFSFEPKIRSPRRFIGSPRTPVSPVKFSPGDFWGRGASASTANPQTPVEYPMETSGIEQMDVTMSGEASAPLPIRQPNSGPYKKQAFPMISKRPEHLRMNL
T2 sequence (P49841 whole entry): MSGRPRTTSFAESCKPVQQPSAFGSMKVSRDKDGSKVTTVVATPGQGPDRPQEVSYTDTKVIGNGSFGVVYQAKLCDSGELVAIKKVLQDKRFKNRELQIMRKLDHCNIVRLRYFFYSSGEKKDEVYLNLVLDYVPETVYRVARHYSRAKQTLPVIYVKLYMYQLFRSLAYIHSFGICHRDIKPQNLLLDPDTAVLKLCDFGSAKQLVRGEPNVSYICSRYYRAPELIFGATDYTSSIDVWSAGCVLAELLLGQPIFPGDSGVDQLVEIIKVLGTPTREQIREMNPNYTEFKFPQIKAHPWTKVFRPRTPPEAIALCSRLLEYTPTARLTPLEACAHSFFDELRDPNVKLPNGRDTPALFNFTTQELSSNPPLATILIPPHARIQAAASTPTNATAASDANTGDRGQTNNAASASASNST

As for `Sc1ncnc2nc[nH]c12` [Mercaptopurine], the EC50 is more than 10000 nM in assay [1] (setting [19]); more than 10000 nM in assay [5] (read-out: Insulin Secretion); more than 10000 nM in [12]; more than 10000 nM in [13] (C2C12, read-out: Wnt Pathway). In addition, the IC50 was more than 20000 nM in assay [2] (kinase assay); more than 20000 nM in [3] (setting [20]); more than 20000 nM in assay [4] (kinase assay); 635 nM in assay [6] (setting [21]); 915 nM in [7] (read-out: Anti-Angiogenesis); 1300 nM in assay [8] (setting [22]). Also, the IC50 in assay [9] (setting [23]) is 659 nM; in [10] (kinase assay), more than 20000 nM; in assay [11] (setting [24]), 1420 nM; in assay [14] (setting [25]), 1040 nM; in assay [15] (setting [26]), 260 nM; in assay [16] (kinase assay) it was more than 20000 nM. Besides, the IC50 in assay [17] (kinase assay) is more than 20000 nM; in [18] (setting [27]) it was 259 nM.

Consider `COc1c(C)c2c(c(O)c1C/C=C(\C)CCC(=O)O)C(=O)OC2` [Mycophenolate], for which the EC50 in assay [1] (setting [19]) was more than 10000 nM; in assay [5] (read-out: Insulin Secretion) it was more than 10000 nM; in [12] it was more than 10000 nM; in assay [13] (C2C12, read-out: Wnt Pathway), more than 10000 nM. The IC50 was more than 20000 nM in assay [2] (kinase assay); more than 20000 nM in [3] (setting [20]); more than 20000 nM in assay [4] (kinase assay); more than 20000 nM in [6] (setting [21]); 1260 nM in assay [7] (read-out: Anti-Angiogenesis); 1 nM in [8] (setting [22]). In addition, the IC50 was 165 nM in assay [9] (setting [23]); more than 20000 nM in [10] (kinase assay); 49.8 nM in assay [11] (setting [24]); 2600 nM in assay [14] (setting [25]); more than 20000 nM in [15] (setting [26]); more than 20000 nM in assay [16] (kinase assay). The IC50 in assay [17] (kinase assay) is more than 20000 nM; in [18] (setting [27]), 67.2 nM.

`Nc1nc2nc[nH]c2c(=S)[nH]1` [Tioguanine]: the EC50 in assay [1] (setting [19]) was more than 10000 nM; in [5] (read-out: Insulin Secretion), more than 10000 nM; in assay [12], more than 10000 nM; in [13] (C2C12, read-out: Wnt Pathway), more than 10000 nM. Further, the IC50 in [2] (kinase assay) is more than 20000 nM; in assay [3] (setting [20]) it was 4400 nM; in assay [4] (kinase assay), more than 20000 nM; in [6] (setting [21]), 49.3 nM; in [7] (read-out: Anti-Angiogenesis), 622 nM; in assay [8] (setting [22]) it was 373 nM. The IC50 in [9] (setting [23]) is 343 nM; in [10] (kinase assay), more than 20000 nM; in assay [11] (setting [24]), 163 nM; in assay [14] (setting [25]), 402 nM; in [15] (setting [26]), 108 nM; in assay [16] (kinase assay) it was more than 20000 nM. In addition, the IC50 was more than 20000 nM in [17] (kinase assay) and 139 nM in [18] (setting [27]).

Consider `Cc1cc(C2CCCCC2)n(O)c(=O)c1` [ciclopirox], for which the EC50 in assay [1] (setting [19]) is more than 10000 nM; in assay [5] (read-out: Insulin Secretion), more than 10000 nM; in assay [12], more than 10000 nM; in assay [13] (C2C12, read-out: Wnt Pathway), 1050 nM. For the same compound, the IC50 in [2] (kinase assay) is more than 20000 nM; in assay [3] (setting [20]), more than 20000 nM; in [4] (kinase assay), more than 20000 nM; in assay [6] (setting [21]), 7040 nM; in [7] (read-out: Anti-Angiogenesis), more than 10000 nM; in assay [8] (setting [22]), 208 nM. Moreover, the IC50 was 233 nM in [9] (setting [23]); more than 20000 nM in [10] (kinase assay); 390 nM in assay [11] (setting [24]); 469 nM in assay [14] (setting [25]); 316 nM in [15] (setting [26]); more than 20000 nM in [16] (kinase assay). For the same compound, the IC50 in assay [17] (kinase assay) is more than 20000 nM; in assay [18] (setting [27]), 656 nM.

As to `O=C(O)c1ccc(-n2nc(-c3ccccc3O)nc2-c2ccccc2O)cc1` [deferasirox], the EC50 in assay [1] (setting [19]) is more than 10000 nM; in assay [5] (read-out: Insulin Secretion) it was more than 10000 nM; in assay [12], more than 10000 nM; in assay [13] (C2C12, read-out: Wnt Pathway), more than 10000 nM. Moreover, the IC50 was more than 20000 nM in assay [2]; 233 nM in assay [3] (setting [20]); more than 20000 nM in assay [4]; 516 nM in [6] (setting [21]); 2090 nM in assay [7] (read-out: Anti-Angiogenesis); 409 nM in [8] (setting [22]). In addition, the IC50 was 100 nM in [9] (setting [23]); more than 20000 nM in assay [10]; 242 nM in assay [11] (setting [24]); 77.6 nM in assay [14] (setting [25]); 651 nM in assay [15] (setting [26]); 18200 nM in assay [16]. The IC50 in assay [17] is more than 20000 nM; in assay [18] (setting [27]) it was 438 nM.

Regarding `Cc1nc(N)nc(N)c1-c1ccc(Cl)c(Cl)c1` [metoprine, reference compound], the EC50 is more than 10000 nM in [1] (NCI-H716, read-out: GLP1 sec. EC50); more than 10000 nM in assay [5] (read-out: Ins. sec. EC50); more than 10000 nM in [12]; 29.9 nM in [13] (C2C12, read-out: Wnt Pathway); 30 nM in assay [13] (C2C12, read-out: Wnt pot. EC50). Also, the IC50 in [2] (kinase assay) is more than 20000 nM; in [3] (SNU-C1, 72 h, read-out: SNU-C1 viab. IC50) it was 2200 nM; in assay [3] (setting [20]), 2160 nM; in assay [4] (kinase assay), more than 20000 nM; in [6] (HT-29, 72 h, read-out: HT-29 viab. IC50), 930 nM; in assay [6] (setting [21]) it was 932 nM. Besides, the IC50 in assay [7] (read-out: Anti-Angio IC50) is more than 10000 nM; in assay [8] (COLO 320, 72 h, read-out: Colo320 viab. IC50), 2000 nM; in [8] (setting [22]), 2030 nM; in assay [9] (72 h, read-out: RKO viab. IC50), 120 nM; in assay [9] (setting [23]), 117 nM; in [10] (kinase assay) it was more than 20000 nM. Besides, the IC50 in assay [11] (HCT-116, 72 h, read-out: HCT-116 (GSK3β) viab. IC50) was found to be 59 nM; in assay [11] (setting [24]), 58.9 nM; in assay [14] (SW480, 72 h, read-out: SW480 viab. IC50) it was 510 nM; in assay [14] (setting [25]), 512 nM; in [15] (DLD-1, 72 h, read-out: DLD-1 viab. IC50), 630 nM; in [15] (setting [26]), 634 nM. Also, the IC50 is more than 20000 nM in [16] (kinase assay); more than 20000 nM in assay [17] (kinase assay); 410 nM in assay [18] (HCT-116, 72 h, read-out: HCT-116 viab. IC50); 413 nM in assay [18] (setting [27]).

As for `O=C1c2c(O)ccc(O)c2C(=O)c2c(NCCNCCO)ccc(NCCNCCO)c21` [mitoxantrone], the EC50 in assay [1] (setting [19]) was more than 10000 nM; in [5] (read-out: Insulin Secretion), more than 10000 nM; in assay [12], more than 10000 nM; in assay [13] (C2C12, read-out: Wnt Pathway), 30.3 nM. In addition, the IC50 is more than 20000 nM in assay [2] (kinase assay); 1720 nM in [3] (setting [20]); more than 20000 nM in [4] (kinase assay); 7590 nM in assay [6] (setting [21]); 4.4 nM in assay [7] (read-out: Anti-Angiogenesis); 7410 nM in assay [8] (setting [22]). The IC50 in [9] (setting [23]) is 1030 nM; in [10] (kinase assay) it was more than 20000 nM; in assay [11] (setting [24]), 1 nM; in assay [14] (setting [25]), 1830 nM; in [15] (setting [26]), 1600 nM; in assay [16] (kinase assay), more than 20000 nM. For the same compound, the IC50 in assay [17] (kinase assay) is more than 20000 nM; in assay [18] (setting [27]), 1230 nM.
